From US9428508B2, “2,4-diamino-6,7-dihydro-5H-pyrrolo[2,3]pyrimidine derivatives as FAK/Pyk2 inhibitors” (Centaurus BioPharma Co., Ltd., priority 2011, dated 2016)
pIC50: −log10 of the molar value.

How the values were obtained:
FAK = FAK (Homo sapiens (Human), UniProt Q05397); test: Biochemical assay for FAK activity (LANCE TR-FRET, ULight-poly Glu,Ala,Tyr substrate); conditions: GST-tagged FAK, 120 min reaction
Protocol: (§1) Biochemical Assay for FAK/Pyk2 Activity
(§2) GST-tagged FAK was purchased from Invitrogen (PV3832). GST-tagged PYK2 was purchased from Invitrogen (PV4567). The activity of FAK/PYK2 was measured by monitoring the phosphorylation of a fluorophore labeled ULight-poly Glu, Ala, Tyr (1:1:1) peptide substrate from Perkin Elmer (TRF0101) in the presence of ATP. The phosphorylated tyrosine residue was recognized by a LANCE Europium chelate labeled anti-phosphotyrosine (PY20) antibody from Perkin Elmer (AD0066). This brought the fluorophore and europium chelate in close proximity ([…]) that upon excitation at 320 nm by an Envision (PerkinElmer), energy can be transferred from the donor Europium chelate to the acceptor fluorophore. […] The strength of the signal was, therefore, directly proportional to the FAK/PYK2 activity.
(§3) To measure inhibitory activity of FAK/PYK2 inhibitors, compounds were first prepare as a 1 mM stock in 100% DMSO and 3-fold serial dilution was performed in a 96-well plate (Corning, 3897) to generate 12 different concentration of 100× stock. A 5 μl of 100× stock of each concentration was added to wells containing 95 μl of 1× reaction buffer (40 mM Tris, pH7.5, […], 1 mM DTT and 1 mM CHAPS) to generate 5× stock. Then 2 μl of 5× stock of each concentration was added to a 384 wells-OptiPlate (PerkinElmer, 6007299).
(§4) For FAK, 4 μl of 2.5 nM FAK, 1 ul of 8 μg/μl BSA and 1.5 μl of 666 nM ULight-poly Glu, Ala, Tyr (1:1:1) peptide substrate, prepared in above reaction buffer, were added to each well. The reaction was initiated by adding 1.5 μl of 33.3 μM ATP. The reaction was allowed to proceed for 120 min before being quenched with 5 μl of 40 mM EDTA stop buffer prepared in 1×LANCE detection buffer (PerkinElmer, CR97-100).
(§5) Upon quenching of the reaction, 5 μl of 8 nM anti-phosphotyrosine antibody was added to each well and incubated for 60 minutes. The plate was measured using an Envision (PerkinElmer) based on the theory mentioned above.

PYK2 = PYK2 (Homo sapiens (Human), UniProt Q14289); test: Biochemical assay for PYK2 activity (LANCE TR-FRET, ULight-poly Glu,Ala,Tyr substrate); conditions: GST-tagged PYK2, 40 min reaction
Protocol: as §1, §2, §3
as §4, with “PYK2, 5” for “FAK, 4”, “2” for “2.5”, “PYK2” for “FAK, 1 ul of 8 μg/μl BSA”, “46.6” for “33.3”, “40” for “120”
as §5

FAK, sequence (Q05397 whole entry): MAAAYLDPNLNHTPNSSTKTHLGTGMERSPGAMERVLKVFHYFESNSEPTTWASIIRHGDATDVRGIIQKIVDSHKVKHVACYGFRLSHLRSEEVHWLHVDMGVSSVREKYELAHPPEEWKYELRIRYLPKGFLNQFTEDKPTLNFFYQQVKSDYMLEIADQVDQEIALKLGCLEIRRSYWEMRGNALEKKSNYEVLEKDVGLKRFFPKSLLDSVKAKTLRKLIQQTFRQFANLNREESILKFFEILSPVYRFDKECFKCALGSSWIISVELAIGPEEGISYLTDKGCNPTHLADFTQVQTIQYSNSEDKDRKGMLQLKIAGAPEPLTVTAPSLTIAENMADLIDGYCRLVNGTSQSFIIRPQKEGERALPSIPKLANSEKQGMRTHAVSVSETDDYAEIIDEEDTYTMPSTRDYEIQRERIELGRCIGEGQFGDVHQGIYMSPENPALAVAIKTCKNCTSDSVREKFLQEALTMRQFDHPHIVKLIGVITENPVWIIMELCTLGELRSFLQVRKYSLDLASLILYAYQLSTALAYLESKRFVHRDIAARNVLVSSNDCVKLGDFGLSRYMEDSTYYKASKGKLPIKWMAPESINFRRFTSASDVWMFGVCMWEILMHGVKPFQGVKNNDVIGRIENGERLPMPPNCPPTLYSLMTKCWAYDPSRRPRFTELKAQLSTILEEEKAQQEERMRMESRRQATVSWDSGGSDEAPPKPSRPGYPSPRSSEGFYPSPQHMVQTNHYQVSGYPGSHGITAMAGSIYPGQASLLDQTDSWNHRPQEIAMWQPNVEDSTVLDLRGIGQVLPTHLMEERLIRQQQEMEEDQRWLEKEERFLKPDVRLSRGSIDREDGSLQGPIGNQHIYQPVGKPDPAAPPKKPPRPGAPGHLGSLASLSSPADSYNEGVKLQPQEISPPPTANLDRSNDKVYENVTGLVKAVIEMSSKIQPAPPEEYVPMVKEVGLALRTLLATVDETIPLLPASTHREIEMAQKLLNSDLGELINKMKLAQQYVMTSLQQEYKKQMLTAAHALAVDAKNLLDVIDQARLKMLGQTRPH
PYK2, sequence (Q14289 whole entry): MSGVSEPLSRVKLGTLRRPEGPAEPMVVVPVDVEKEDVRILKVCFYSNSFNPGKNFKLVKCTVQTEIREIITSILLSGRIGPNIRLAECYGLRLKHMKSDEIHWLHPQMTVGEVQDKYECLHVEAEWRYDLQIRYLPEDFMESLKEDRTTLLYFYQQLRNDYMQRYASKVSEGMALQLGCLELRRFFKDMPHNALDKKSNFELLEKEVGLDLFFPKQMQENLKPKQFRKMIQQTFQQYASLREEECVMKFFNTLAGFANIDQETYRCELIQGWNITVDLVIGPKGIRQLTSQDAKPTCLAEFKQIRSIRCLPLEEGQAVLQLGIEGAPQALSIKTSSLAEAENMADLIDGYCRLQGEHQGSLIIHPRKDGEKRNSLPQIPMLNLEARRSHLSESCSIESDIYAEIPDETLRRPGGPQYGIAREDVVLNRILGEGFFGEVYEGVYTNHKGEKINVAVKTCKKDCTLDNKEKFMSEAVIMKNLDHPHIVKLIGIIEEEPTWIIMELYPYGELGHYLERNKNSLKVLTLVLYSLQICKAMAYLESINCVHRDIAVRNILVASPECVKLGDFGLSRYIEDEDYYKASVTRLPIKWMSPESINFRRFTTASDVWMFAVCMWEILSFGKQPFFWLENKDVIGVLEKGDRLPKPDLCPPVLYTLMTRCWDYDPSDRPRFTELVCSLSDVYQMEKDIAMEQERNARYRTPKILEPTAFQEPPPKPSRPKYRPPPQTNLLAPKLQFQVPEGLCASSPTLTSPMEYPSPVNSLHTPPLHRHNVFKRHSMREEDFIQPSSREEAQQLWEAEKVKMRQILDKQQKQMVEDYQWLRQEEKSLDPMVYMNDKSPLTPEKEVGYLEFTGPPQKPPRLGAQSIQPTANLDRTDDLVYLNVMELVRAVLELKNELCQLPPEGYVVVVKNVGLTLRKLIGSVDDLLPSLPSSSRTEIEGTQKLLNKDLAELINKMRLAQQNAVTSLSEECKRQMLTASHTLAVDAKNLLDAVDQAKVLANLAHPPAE

Row | Structure (SMILES) | pIC50 (FAK) | pIC50 (PYK2)
1 | COc1cc(N2CCOCC2)ccc1Nc1nc2c(c(Nc3cccc(C)n3)n1)C1(CC1)CN2 [Example 154, N^2′-(2-methoxy-4-morpholinophenyl)-N^4′-(6-methylpyridin-2-yl)-6′,7′-dihydrospiro[cyclopropane-1,5′-pyrrolo[2,3-d]pyrimidine]-2′,4′-diamine] | > 7.30 | > 7.00
2 | CNC(=O)c1ccccc1Nc1nc(Nc2cccc3c2OCCO3)nc2c1CCN2 [Example 15, 2-(2-(2,3-dihydrobenzo[b][1,4]dioxin-5-ylamino)-6,7-dihydro-5H-pyrrolo[2,3-d]pyrimidin-4-ylamino)-N-methylbenzamide] | > 6.30 | > 6.30
3 | CNS(=O)(=O)c1ccc(Nc2nc3c(c(Nc4ccccc4S(=O)(=O)NC(C)C)n2)CCN3)cc1 [Example 64, N-isopropyl-2-(2-(4-(N-methylsulfamoyl)phenylamino)-6,7-dihydro-5H-pyrrolo[2,3-d]pyrimidin-4-ylamino)benzenesulfonamide] | > 7.70 | > 7.70
4 | CCCCNS(=O)(=O)c1ccccc1Nc1nc(Nc2ccc(N3CCOCC3)cc2OC)nc2c1CCN2 [Example 39, N-butyl-2-(2-(2-methoxy-4-morpholinophenylamino)-6,7-dihydro-5H-pyrrolo[2,3-d]pyrimidin-4-ylamino)benzenesulfonamide] | > 7.30 | > 7.00
5 | COc1cc(N2CCOCC2)ccc1Nc1nc2c(c(NCc3ccccc3N(C)S(C)(=O)=O)n1)CCN2 [Example 11, N-(2-((2-(2-methoxy-4-morpholinophenylamino)-6,7-dihydro-5H-pyrrolo[2,3-d]pyrimidin-4-ylamino)methyl)phenyl)-N-methylmethanesulfonamide] | > 7.00 | < 5.70
6 | COc1cc(N2CCOCC2)ccc1Nc1nc2c(c(Nc3ccccc3S(=O)(=O)NCCN(C)C)n1)CCN2 [Example 49, N-(2-(dimethylamino)ethyl)-2-(2-(2-methoxy-4-morpholinophenylamino)-6,7-dihydro-5H-pyrrolo[2,3-d]pyrimidin-4-ylamino)benzenesulfonamide] | > 6.30 | > 6.30
7 | COc1cc(N2CCOCC2)ccc1Nc1nc2c(c(Nc3ccccc3C(=O)N3CCCC3)n1)C(C)CN2 (racemic) [Example 24, (±)-(2-(2-(2-methoxy-4-morpholinophenylamino)-5-methyl-6,7-dihydro-5H-pyrrolo[2,3-d]pyrimidin-4-ylamino)phenyl)(pyrrolidin-1-yl)methanone] | > 6.70 | > 6.30
8 | COc1cc(N2CCOCC2)ccc1Nc1nc2c(c(Nc3ccccc3S(=O)(=O)NC3CCC3)n1)C1(CC1)CN2 [Example 150, N-cyclobutyl-2-(2′-(2-methoxy-4-morpholinophenylamino)-6′,7′-dihydrospiro[cyclopropane-1,5′-pyrrolo[2,3-d]pyrimidine]-4′-ylamino)benzenesulfonamide] | > 7.70 | > 7.70
9 | COc1cc(N2CCS(=O)(=O)CC2)ccc1Nc1nc2c(c(Nc3ccccc3S(=O)(=O)NC(C)C)n1)CCN2 [Example 87, 2-(2-(4-(4-(S,S-dioxothio)piperidin-1-yl)-2-methoxyphenylamino)-6,7-dihydro-5H-pyrrolo[2,3-d]pyrimidin-4-ylamino)-N-isopropylbenzenesulfonamide] | > 7.70 | > 7.70
10 | COc1cc(N2CCOCC2)ccc1Nc1nc2c(c(Nc3ccccc3S(=O)(=O)NC3CC3)n1)C1(CC1)CN2 [Example 146, N-cyclopropyl-2-(2′-(2-methoxy-4-morpholinophenylamino)-6′,7′-dihydrospiro[cyclopropane-1,5′-pyrrolo[2,3-d]pyrimidine]-4′-ylamino)benzenesulfonamide] | < 6.00 | < 6.00
11 | CNC(=O)c1ccccc1Nc1nc(Nc2cc(OC)c(OC)c(OC)c2)nc2c1C(C)(C)CN2 [Example 130, 2-(5,5-dimethyl-2-(3,4,5-trimethoxyphenylamino)-6,7-dihydro-5H-pyrrolo[2,3-d]pyrimidin-4-ylamino)-N-methylbenzamide] | > 6.70 | > 6.70
12 | COc1cc(N2CCOCC2)ccc1Nc1nc2c(c(Nc3ccccc3S(=O)(=O)NCCO)n1)C1(CC1)CN2 [Example 142, N-(2-hydroxyethyl)-2-(2′-(2-methoxy-4-morpholinophenylamino)-6′,7′-dihydrospiro[cyclopropane-1,5′-pyrrolo[2,3-d]pyrimidine]-4′-ylamino)benzenesulfonamide] | < 6.00 | < 6.00
13 | COc1cc(N2CCOCC2)ccc1Nc1nc2c(c(Nc3ccccc3S(=O)(=O)NC3CCC3)n1)CCN2 [Example 6, N-cyclobutyl-2-(2-(2-methoxy-4-morpholinophenylamino)-6,7-dihydro-5H-pyrrolo[2,3-d]pyrimidin-4-ylamino)benzenesulfonamide] | > 7.70 | > 7.70
14 | COc1cc(N2CCOCC2)ccc1Nc1nc2c(c(Nc3ccccc3S(=O)(=O)NC(C)(C)C)n1)C(C)(C)CN2 [Example 117, N-tert-butyl-2-(2-(2-methoxy-4-morpholinophenylamino)-5,5-dimethyl-6,7-dihydro-5H-pyrrolo[2,3-d]pyrimidin-4-ylamino)benzenesulfonamide] | > 7.70 | > 7.70
15 | COc1cc(-n2cccn2)ccc1Nc1nc2c(c(Nc3ccccc3S(=O)(=O)NC(C)C)n1)CCN2 [Example 94, N-isopropyl-2-(2-(2-methoxy-4-(1H-pyrazol-1-yl)phenylamino)-6,7-dihydro-5H-pyrrolo[2,3-d]pyrimidin-4-ylamino)benzenesulfonamide] | > 7.30 | > 6.70
16 | COc1cc(N2CCOCC2)ccc1Nc1nc2c(c(Nc3ccccc3S(=O)(=O)Nc3ccccc3)n1)C1(CC1)CN2 [Example 143, 2-(2′-(2-methoxy-4-morpholinophenylamino)-6′,7′-dihydrospiro[cyclopropane-1,5′-pyrrolo[2,3-d]pyrimidine]-4′-ylamino)-N-phenylbenzenesulfonamide] | > 7.00 | > 6.70
17 | CC(C)NS(=O)(=O)c1ccccc1Nc1nc(Nc2cccc(NS(C)(=O)=O)c2)nc2c1CCN2 [Example 73, N-isopropyl-2-(2-(3-(methylsulfonamido)phenylamino)-6,7-dihydro-5H-pyrrolo[2,3-d]pyrimidin-4-ylamino)benzenesulfonamide] | > 7.70 | > 7.70
18 | COc1cc(N2CCOCC2)ccc1Nc1nc2c(c(Nc3ccccc3NC(C)=O)n1)C(C)(C)CN2 [Example 124, N-(2-(2-(2-methoxy-4-morpholinophenylamino)-5,5-dimethyl-6,7-dihydro-5H-pyrrolo[2,3-d]pyrimidin-4-ylamino)phenyl)acetamide] | > 6.70 | > 6.70
19 | CC(C)NS(=O)(=O)c1ccccc1Nc1nc(Nc2ccc(C(F)(F)F)cc2)nc2c1CCN2 [Example 61, N-isopropyl-2-(2-(4-(trifluoromethyl)phenylamino)-6,7-dihydro-5H-pyrrolo[2,3-d]pyrimidin-4-ylamino)benzenesulfonamide] | > 6.00 | > 6.30
20 | COc1cc(-n2cc(C)nc2C)ccc1Nc1nc2c(c(Nc3ccccc3S(=O)(=O)NC(C)C)n1)CCN2 [Example 90, 2-(2-(4-(2,4-dimethyl-1H-imidazol-1-yl)-2-methoxyphenylamino)-6,7-dihydro-5H-pyrrolo[2,3-d]pyrimidin-4-ylamino)-N-isopropylbenzenesulfonamide] | > 7.70 | > 7.70
21 | CNC(=O)c1ccccc1Nc1nc(Nc2ccc3c(ccn3CCCN3CCOCC3)c2)nc2c1C(C)(C)CN2 [Example 134, 2-(5,5-dimethyl-2-(1-(3-morpholinopropyl)-1H-indol-5-ylamino)-6,7-dihydro-5H-pyrrolo[2,3-d]pyrimidin-4-ylamino)-N-methylbenzamide] | > 6.70 | > 6.70
22 | COc1cc(N2CCOCC2)ccc1Nc1nc2c(c(Nc3ccccc3S(=O)(=O)N(C)C)n1)C(C)(C)CN2 [Example 111, 2-(2-(2-methoxy-4-morpholinophenylamino)-5,5-dimethyl-6,7-dihydro-5H-pyrrolo[2,3-d]pyrimidin-4-ylamino)-N,N-dimethylbenzenesulfonamide] | > 7.70 | > 7.70
